Where a name gives a salt, the structure may show the parent alone. Read-outs that look alike come from different tables or passages of the source.
Biological target: T1, human urokinase (Homo sapiens, UniProt P00749)
T1 construct: the urokinase used was HMWT Human Urokinase (Calbiochem 672081); purchased Calbiochem 672081
Experiment: urokinase inhibition assay (S-2444 substrate)
Assay type: biochemical

[1] = read-out: Ki values vs. urokinase

Ki [1] | Ki | SMILES
≤ 20 nM |  | NC(N)=Nc1ncc(Cl)c2ccc(S(=O)(=O)NC3(C(=O)O)CCCC3)cc12 [37(b), N-[(4-Chloro-1-guanidino-7-isoquinolinyl)sulphonyl]cycloleucine]
 | ≤ 20 nM | NC(N)=Nc1ncc(Cl)c2ccc(S(=O)(=O)NC3(C(=O)O)CCCCC3)cc12 [43(b), 1-{[(4-Chloro-1-guanidino-7-isoquinolinyl)sulphonyl]amino}cyclohexanecarboxylic acid hydrochloride]
≤ 20 nM |  | CN(C)CCN(C1(C(=O)O)CCCC1)S(=O)(=O)c1ccc2c(Br)cnc(NC(=N)N)c2c1 [84(b), N-({4-Bromo-1-guanidino-7-isoquinolinyl}sulphonyl)-N-[2-(dimethylamino)ethyl]cycloleucine dihydrochloride]
 | ≤ 20 nM | NC(N)=Nc1ncc(Cl)c2ccc(S(=O)(=O)N3CCC[C@@H]3C(=O)O)cc12 [Example 32(b), N-[(4-Chloro-1-guanidino-7-isoquinolinyl)sulphonyl]-D-proline hydrochloride]
≤ 20 nM |  | NC(N)=Nc1ncc(Cl)c2ccc(S(=O)(=O)NC3(C(=O)NCCO)CCCC3)cc12 [Example 38, 1-{[(4-Chloro-1-guanidino-7-isoquinolinyl)sulphonyl]amino}-N-(2-hydroxyethyl)cyclopentanecarboxamine hydrochloride]
≤ 20 nM |  | CN(C)CCNC(=O)C1(NS(=O)(=O)c2ccc3c(Cl)cnc(N=C(N)N)c3c2)CCCC1 [Example 39(a), 1-{[(4-Chloro-1-guanidino-7-isoquinolinyl)sulphonyl]amino}-N-[2-(dimethylamino)ethyl]cyclopentanecarboxamine]
≤ 20 nM |  | CN(CCO)C(=O)C1(NS(=O)(=O)c2ccc3c(Cl)cnc(NC(=N)N)c3c2)CCCC1 [Example 75, 1-[({4-Chloro-1-guanidino-7-isoquinolinyl}sulphonyl)amino]-N-(2-hydroxyethyl)-N-methylcyclopentanecarboxamide hydrochloride]
≤ 20 nM |  | COCCNC(=O)C1(NS(=O)(=O)c2ccc3c(Cl)cnc(NC(=N)N)c3c2)CCCC1 [Example 76, 1-[({4-Chloro-1-guanidino-7-isoquinolinyl}sulphonyl)amino]-N-(2-methoxyethyl)cyclopentanecarboxamide hydrochloride]
 | ≤ 20 nM | NC(N)=Nc1ncc(Cl)c2ccc(S(=O)(=O)NC3(C(=O)N4CCOCC4)CCCC3)cc12 [Example 78, 4-Chloro-1-guanidino-N-[1-(morpholinocarbonyl)cyclopentyl]-7-isoquinolinesulphonamide hydrochloride]
 | ≤ 20 nM | CN1CCN(C(=O)C2(NS(=O)(=O)c3ccc4c(Cl)cnc(N=C(N)N)c4c3)CCCC2)CC1 [Example 79, 4-Chloro-1-guanidino-N-{1-[(4-methylpiperazino)carbonyl]cyclopentyl}-7-isoquinolinesulphonamide dihydrochloride]
≤ 20 nM |  | N=C(N)Nc1ncc(Cl)c2ccc(S(=O)(=O)N(CCOC3CCCCO3)C3(C(=O)O)CCCC3)cc12 (stereo not drawn) [Example 87(b), 1-{[(4-Chloro-1-guanidino-7-isoquinolinyl)sulphonyl][2-(tetrahydro-2H-pyran-2-yloxy)ethyl]amino}cyclopentanecarboxylic acid]
≤ 20 nM |  | NC(N)=Nc1ncc(Cl)c2ccc(S(=O)(=O)N3CCOC(=O)C34CCCC4)cc12 [Example 87(c), N"-{4-Chloro-7-[(10-oxo-9-oxa-6-azaspiro [4.5]dec-6-yl)sulphonyl]-1-isoquinolinyl}guanidine hydrochloride]

From patent publication US6093731A, “Isoquinolines” (priority 1999, dated 2000)
